Each structure is given as a SMILES string.

Data on 37 compounds can be found in patent publication US11992494B2, “Cyclopentathiophene carboxamide derivatives as platelet activating factor receptor antagonists” (Boehringer Ingelheim International GmbH, priority 2021, dated 2024).

Test system in one data set: not listed separately
In words: Evaluation of chemical stability (solution state stress conditions, HPLC). The format is physicochemical. To be noted: 40° C., ACN/0.1M aq. HCl (pH ca. 1.2). The protocol: Evaluation of Chemical Stability Within solution state stability studies the influence of temperature, pH and light exposure are analyzed. Stress conditions are applied in order to get a fast signal of possible chemical decomposition via hydrolytical, oxidative or photodegradative pathways. […] The stressed/stored samples are analysed by a stability indicative chiral or achiral HPLC-method, as appropriate. Degradation studies are used to simulate chemical stability of compounds in the acidic part of the gastrointestinal tract. The compounds of the invention show high chemical stability in acidic aqueous media (pH value ca. 1.2) what makes their application as medical drugs to treat human diseases less restricted and troublesome. […] Compound is dissolved in an HPLC vial in a mixture of acetonitrile/0.1 M aqueous HCl (ratio: 2:3; pH ca. 1.2) to get a concentration of approximately 0.25 mg/ml. The vial is then transferred into an HPLC autosampler system and maintained at the desired temperature of, e.g., 40° C. A first sample is taken and injected immediately into a standard HPLC system with a UV DAD detector. A further sample is injected after 24 hours. Amount of degraded compound is measured by determining the recovery rate of compound [%] for the 24 h injection using an HPLC standard gradient method. Therefore the peak area of the main peak for the first injection (AUt0) is determined and set as 100%. Peak area of the main peak is determined also for the 24 h injection (AU24 h) and expressed as fraction of (AU24 h)/(AUt0)[%]. Analogously, the amount of degraded compound is determined for stability examinations running for more than 1 day, e.g., for 3 days.
Take `Cc1nnc2n1-c1sc3c(c1C(c1ccccc1Cl)=NC21CC1)C[C@H](C(=O)N1CCOCC1)C3` [Example 114]: the “Amount of degradation after 3 d at 40° C. in ACN/0.1M aq. HCl” value is on record as 4%.

A further data set deals with T1, PAFR (Homo sapiens, UniProt P25105).
Assay: not given
Particulars: literature values (Weber et al.; EP0368175A1); read-out: PAFR affinity (Ki); cited from earlier work.
Target sequence in this assay (P25105 whole entry, species assumed): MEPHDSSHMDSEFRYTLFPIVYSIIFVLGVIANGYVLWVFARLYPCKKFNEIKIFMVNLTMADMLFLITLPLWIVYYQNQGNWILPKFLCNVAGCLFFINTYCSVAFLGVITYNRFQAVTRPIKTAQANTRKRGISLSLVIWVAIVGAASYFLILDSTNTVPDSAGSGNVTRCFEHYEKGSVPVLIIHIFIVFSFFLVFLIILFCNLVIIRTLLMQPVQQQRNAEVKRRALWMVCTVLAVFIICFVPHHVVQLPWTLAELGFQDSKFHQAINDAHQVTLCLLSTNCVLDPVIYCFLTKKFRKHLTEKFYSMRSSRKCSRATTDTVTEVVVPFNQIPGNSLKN
In the case of `Cc1nnc2n1-c1sc3c(c1C(c1ccccc1Cl)=NC2C)CC(C(=O)N1CCOCC1)C3` (single isomer, unassigned; (-)) [(−) 9dA], the Ki (usually the dissociation constant of the complex between target and ligand, obtained from inhibition or displacement) is 70 nM.
Consider `Cc1nnc2n1-c1sc3c(c1C(c1ccccc1Cl)=NC2C)CC(C(=O)N1CCOCC1)C3` (single isomer, unassigned; (-)) [(−) 9dB], for which the Ki is 8 nM.
As for `Cc1nnc2n1-c1sc3c(c1C(c1ccccc1Cl)=NC2)CC(C(=O)N1CCOCC1)C3` (racemic) [WEB 2170 (bepafant) racemate], the Ki is 15 nM.
On to `Cc1nnc2n1-c1sc3c(c1C(c1ccccc1Cl)=NC2)CC(C(=O)N1CCOCC1)C3` (single isomer, unassigned; (+)) [(+)-bepafant], for which the Ki was 660 nM.
As to `Cc1nnc2n1-c1sc3c(c1C(c1ccccc1Cl)=NC2C)CC(C(=O)N1CCOCC1)C3` (single isomer, unassigned; (+)) [(+) 9dA], the Ki was 400 nM.
As to `Cc1nnc2n1-c1sc3c(c1C(c1ccccc1Cl)=NC2)CC(C(=O)N1CCOCC1)C3` (single isomer, unassigned; (-)) [(−)-bepafant], the Ki was 14 nM.
As to `Cc1nnc2n1-c1sc3c(c1C(c1ccccc1Cl)=NC2C)CC(C(=O)N1CCOCC1)C3` (single isomer, unassigned; (+)) [(+) 9dB], the Ki was 3000 nM.

The data set is the same for the next values; noted with them: see EP0368175A1; cited from earlier work.
For the compound `Cc1nnc2n1-c1sc(CCC(=O)N3CCOCC3)cc1C(c1ccccc1Cl)=NC2C` (stereo not drawn) [example 1 of EP0368175A1 (−)-enantiomer], the “binding to the PAFR of (−)-enantiomer relative to (+)-enantiomer” value is “(−)-enantiomer 35 times stronger binding”.

The target of a further data set is T1, PAFR.
Assay: not given
To be noted: PAFR binding, Miyazawa et al.; cited from earlier work.
Target sequence in this assay (P25105 whole entry, species assumed): as above
As for `C#CCCOC(=O)N1CCc2c(sc3c2C(c2ccccc2Cl)=NC(C)c2nnc(C)n2-3)C1` (single isomer, unassigned) [compound 22 of Miyazawa et al. (+) isomer], the IC50 (in general, the midpoint of a concentration-inhibition curve) was 0.34 nM.
As to `C#CCCOC(=O)N1CCc2c(sc3c2C(c2ccccc2Cl)=NC(C)(C)c2nnc(C)n2-3)C1` [compound 23 of Miyazawa et al.], the IC50 is 160 nM.
Regarding `Cc1nnc2n1-c1sc3c(c1C(c1ccccc1Cl)=NC2C)CCN(C(=O)OC(C)(C)C#N)C3` (single isomer, unassigned) [compound 34 of Miyazawa et al. (−) isomer], the IC50 is 500 nM.
Regarding `C#CCCOC(=O)N1CCc2c(sc3c2C(c2ccccc2Cl)=NC(CC)(CC)c2nnc(C)n2-3)C1` [compound 25 of Miyazawa et al.], the IC50 is 290 nM.
Turning to `C#CCCOC(=O)N1CCc2c(sc3c2C(c2ccccc2Cl)=NC(C)c2nnc(C)n2-3)C1` (single isomer, unassigned) [compound 35 of Miyazawa et al. (−) isomer], the IC50 is 420 nM.
Turning to `C#CCCOC(=O)N1CCc2c(sc3c2C(c2ccccc2Cl)=NC(C)c2nnc(C)n2-3)C1` (single isomer, unassigned) [compound 22 of Miyazawa et al. (−) isomer], the IC50 was 82 nM.
On to `C#CCCOC(=O)N1CCc2c(sc3c2C(c2ccccc2Cl)=NC(CC)c2nnc(C)n2-3)C1` (racemic) [compound 24 of Miyazawa et al. racemate], for which the IC50 was 22 nM.
With `Cc1nnc2n1-c1sc3c(c1C(c1ccccc1Cl)=NC2C)CCN(C(=O)OC(C)(C)C#N)C3` (single isomer, unassigned) [compound 34 of Miyazawa et al. (+) isomer], the IC50 is 3.1 nM.
As for `C#CCCOC(=O)N1CCc2c(sc3c2C(c2ccccc2Cl)=NC(C)c2nnc(C)n2-3)C1` (racemic) [compound 22 of Miyazawa et al. racemate], the IC50 was 1.5 nM.
In the case of `C#CCCOC(=O)N1CCc2c(sc3c2C(c2ccccc2Cl)=NC(C)c2nnc(C)n2-3)C1` (single isomer, unassigned) [compound 35 of Miyazawa et al. (+) isomer], the 50% inhibitory concentration (IC50) was 2.8 nM.
On to `C#CCCOC(=O)N1CCc2c(sc3c2C(c2ccccc2Cl)=NCc2nnc(C)n2-3)C1` [compound 18 of Miyazawa et al.], for which the 50% inhibitory concentration (IC50) is 3.8 nM.

The target in the next data set is T1, PAFR. Nature of the data set: cellular HTRF IP1 assay: inhibition of PAFR activation by PAF C-16 ligand (endpoint assay). Type of data set: cell-based. Also noted: expressed in transfected cells; host or cells: HEK293. Particulars: HEK293 cells overexpressing human PAFR; PAF ligand 11 nM; Table 2. Summed up:
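HEK293 cells overexpressing human PAFR were preincubated with compound (1% DMSO) 90 min at 37°C, then challenged with 11 nM PAF C-16 for 60 min in HBSS/20 mM HEPES pH 7.4/50 mM LiCl/0.1% BSA. IP1 accumulation read by HTRF (665/620 nm emission).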
Target sequence in this assay (P25105 whole entry): as the sequence (P25105 whole entry, species assumed) above
In the case of `Cc1nnc2n1-c1sc3c(c1C(c1ccccc1Cl)=NC21CC1)C[C@H](C(=O)N1CCOCC1)C3` [Example 114], the midpoint of inhibition, the IC50, lay at 7.2 nM.
The compound `Cc1nnc2n1-c1sc3c(c1C(c1ccccc1Cl)=NC21CC1)C[C@H](C(=O)N[C@H]1CC[C@@H](F)CC1)C3` [Example 36] gave an IC50 of 3.5 nM.
For `Cc1nnc2n1-c1sc3c(c1C(c1ccccc1Cl)=NC21CC1)C[C@H](C(=O)N1CCOC(C)(C)C1)C3` [Example 10], the 50% inhibitory concentration (IC50) is 5.2 nM.
In turn, `Cc1nnc2n1-c1sc3c(c1C(c1ccccc1Cl)=NC21CC1)C[C@H](C(=O)N[C@H]1COC[C@H]1C)C3` [Example 28] yielded an IC50 of 6.8 nM.
The compound `Cc1nnc2n1-c1sc3c(c1C(c1ccccc1Cl)=NC21CC1)C[C@H](C(=O)N[C@H]1CCN(c2ncccn2)C1)C3` [Example 62] registered an IC50 of 6.5 nM.
Consider `Cc1nnc2n1-c1sc3c(c1C(c1ccccc1Cl)=NC21CC1)C[C@H](C(=O)NC1(c2ccccn2)CC1)C3` [Example 87], for which the midpoint of inhibition, the IC50, lay at 4.9 nM.
For `Cc1nnc2n1-c1sc3c(c1C(c1ccccc1Cl)=NC21CC1)C[C@H](C(=O)NC1[C@H]2CCC[C@@H]12)C3` (some centres unmarked) [Example 19], the concentration for half-maximal inhibition (IC50) was found to be 1.6 nM.
On to `Cc1nnc2n1-c1sc3c(c1C(c1ccccc1Cl)=NC21CC1)C[C@H](C(=O)N(C)[C@H]1CCN(S(C)(=O)=O)C1)C3` [Example 111, (13′S)-9′-(2-chlorophenyl)-N-[(3S)-1-methanesulfonylpyrrolidin-3-yl]-N,3′-dimethyl-16′-thia-2′,4′,5′,8′-tetraazaspiro[cyclopropane-1,7′-tetracyclo[8.6.0.0^2,^6.0^11,15]hexadecane]-1′(10′),3′,5′,8′,11′(15′)-pentaene-13′-carboxamide], for which the IC50 was 24 nM.
`Cc1nnc2n1-c1sc3c(c1C(c1ccccc1Cl)=NC21CC1)C[C@H](C(=O)NC1(C)CC1)C3` [Example 18] had a half-inhibitory concentration (IC50) of 3.4 nM.
`Cc1nnc2n1-c1sc3c(c1C(c1ccccc1Cl)=NC21CC1)C[C@H](C(=O)NC1CCCCC1)C3` [Example 59] returned an IC50 of 1.6 nM.
In turn, `CCCN(C(=O)[C@@H]1Cc2sc3c(c2C1)C(c1ccccc1Cl)=NC1(CC1)c1nnc(C)n1-3)C1CCOCC1` [Example 115, (13′S)-9′-(2-chlorophenyl)-3′-methyl-N-(oxan-4-yl)-N-propyl-16′-thia-2′,4′,5′,8′-tetraazaspiro-[cyclopropane-1,7′-tetracyclo[8.6.0.0^2,6.0^11,15]hexadecane]-1′(10′),3′,5′,8′,11′(15′)-pentaene-13′-carboxamide] showed an IC50 of 25 nM.
Take `Cc1nnc2n1-c1sc3c(c1C(c1ccccc1Cl)=NC21CC1)C[C@H](C(=O)N[C@@H]1C[C@H]1c1ccccc1)C3` [Example 60]: the IC50 came to 1.3 nM.
Compound `Cc1nnc2n1-c1sc3c(c1C(c1cc(Br)ccc1Cl)=NC21CC1)C[C@H](C(=O)N1CCOCC1)C3` [Example 4, (13′S)-9′-(5-bromo-2-chlorophenyl)-3′-methyl-13′-(morpholine-4-carbonyl)-16′-thia-2′,4′,5′,8′-tetraazaspiro[cyclopropane-1,7′-tetracyclo[8.6.0.0^2,6.0^11,15]hexadecane]-1′(10′)3′,5′,8′,11′(15′)-pentaene] came in with an IC50 of 26 nM.
`Cc1nnc2n1-c1sc3c(c1C(c1ccccc1Cl)=NC21CC1)C[C@H](C(=O)NC1(CO)CCCCC1)C3` [Example 71] gave a half-maximal inhibitory concentration (IC50) of 3.9 nM.
With `Cc1nnc2n1-c1sc3c(c1C(c1ccccc1Cl)=NC21CC1)C[C@H](C(=O)N[C@H]1CCc2c(F)cccc21)C3` [Example 92], it took 0.9 nM to reach half-maximal inhibition (IC50).
For `Cc1nnc2n1-c1sc3c(c1C(c1ccccc1Cl)=NC21CC1)C[C@H](C(=O)NC1COc2ccccc21)C3` (some centres unmarked) [Example 55], half-maximal inhibition (IC50) required 1.4 nM.
Same read-out and setting: under `CCCNC(=O)[C@@H]1Cc2sc3c(c2C1)C(c1ccccc1Cl)=NC1(CC1)c1nnc(C)n1-3` [Example 66] stands 2.4 nM.

Staying with this data set, now noted: dedicated head-to-head comparison assay run: cyclopropylene vs di-methyl / cyclobutylene analogues.
`Cc1nnc2n1-c1sc3c(c1C(c1ccccc1Cl)=NC21CC1)C[C@H](C(=O)N1CCOCC1)C3` [Example 114]: 6.6 nM corresponded to half-maximal inhibition (IC50).
As to `Cc1nnc2n1-c1sc3c(c1C(c1ccccc1Cl)=NC21CC1)C[C@H](C(=O)NC1(c2ccccn2)CC1)C3` [Example 87], the IC50 is 5.6 nM.
Consider `Cc1nnc2n1-c1sc3c(c1C(c1ccccc1Cl)=NC21CCC1)C[C@H](C(=O)N1CCOCC1)C3` [comparative example 2, reference compound], for which the IC50 was found to be 59 nM.
Turning to `CCCNC(=O)[C@@H]1Cc2sc3c(c2C1)C(c1ccccc1Cl)=NC1(CC1)c1nnc(C)n1-3` [Example 66], half-maximal inhibition (IC50) required 2.3 nM.
